# According to US9828375B2, “4-position substituted pyrazolopyrimidine derivative, and use thereof in drug preparation” (Guangxi Wuzhou Pharmaceuticals (Group) Co., Ltd., priority 2012, dated 2017):
# What was measured:
# [1] = test system: human colorectal carcinoma cell line HT29; experiment: In vivo anti-tumor experiment, nude mouse-subcutaneous human colorectal carcinoma HT29 model; design: species or system BALB/C nude mice
# Description: (§1) The cell lines used were human colorectal carcinoma cell line HT29 and human glioma cell line U251.
# [2] = test system: human glioma cell line U251; experiment: In vivo anti-tumor experiment, nude mouse-subcutaneous human glioma U251 model; design: species or system BALB/C nude mice
# Description: as §1
# [3] = test system: human malignant melanoma cell line WM2664
# Description: The purpose of the experiment was to test the in vivo anti-tumor effect of the compound of the invention. […] The cell line used was human malignant melanoma cell line WM2664. The drug (sorafenib) undergoing anti-melanoma clinical trial was used as the positive control.
# BALB/C nude mice at age of 6 to 8 weeks were used, and WM2664 cells were inoculated at the subcutaneous posterior ribs of the mice at a concentration of 5×106/0.1 mL/mouse; after the tumors grew to 200-300 mm^3 (for about 15 days), mice (n=6) were grouped and subject to oral intragastric administration.
# Observation targets: Mouse weight and long and short diameters of tumor were measured every 3 days, and tumor volume (length×width^2×0.52) was calculated to observe for diarrhea, convulsion, rash, significant weight loss and other reactions.
# [4] = daily dose of 30 mg/kg or above, oral
# [5] = nude mice, 15-60 mg/kg q.d. oral
Compound,"in vivo tumor growth inhibition effect [1, 4]","weight loss, rash, diarrhea and other adverse reactions during administration [1, 5]","in vivo tumor growth inhibition effect [2, 4]","weight loss, rash, diarrhea and other adverse reactions during administration [2, 5]",effect compared with sorafenib ([3]; 4a-2 25 mg/kg/d vs sorafenib at daily dose of 50 mg/kg),"in vivo tumor growth inhibition effect ([3]; dose of 25 mg/kg/d, oral, WM2664 (BRAF V600D) model)"
O=C(Nc1ccc(Oc2ncnc3[nH]ncc23)cc1)Nc1cccc(C(F)(F)F)c1 [4a-6],obviously inhibit tumor growth,not found,obviously inhibit tumor growth,not found,–,–
O=C(Nc1ccc(Oc2ncnc3[nH]ncc23)cc1)Nc1ccc(Cl)c(C(F)(F)F)c1 [4a-2],–,–,–,–,more effective than sorafenib,obviously inhibit tumor growth
